Laboratory results as given in publication PMC3842914, “Meleagrin, a New FabI Inhibitor from Penicillium chryosogenum with at Least One Additional Mode of Action” (PLoS ONE, 2013).
In brackets after ≈: the same amount, converted by molar mass. Like-named read-outs stand apart in the source and are kept apart here.

How the values were obtained:
E. coli EW1b(pBAD-fabK) = assay: Overexpression assay, MIC for fabK-overexpressing E. coli EW1b (pBAD-fabK); format: cell-based; details: Escherichia coli
Protocol: (§1) Whole-cell antimicrobial activity was determined by broth microdilution as described previously. The test strains except for S. pneumoniae were grown to mid-log phase in Mueller–Hinton broth and diluted 1,000-fold in the same medium. Cells (10^5/mL) were inoculated into Mueller–Hinton broth and dispensed at 0.2 mL/well into a 96-well microtiter plate. S. pneumoniae was grown in tryptic soy broth supplemented with 5% sheep blood. MICs were determined in triplicate by serial 2-fold dilutions of test compounds. […] Bacterial growth was determined by measuring the absorption at 650 nm by using a microtiter ELISA reader.
(§2) An overexpression assay using S. aureus RN4220, S. aureus RN4220 (pE194), and S. aureus RN4220 (pE194-fabI) was conducted to perform target validation of FabI inhibitors as described previously. Additionally, both fabI- and fabK-overexpressing E. coli were constructed to test a multitarget effect of the compounds. The wild-type fabI gene from the genomic DNA of E. coli W3110 was amplified by PCR by using the primers 5′-[…]-3′ and 5′-[…]-3′. The wild-type fabK gene from the genomic DNA of S. pneumoniae KCTC 5412 was amplified by PCR by using the primers 5′-[…]-3′ and 5′-[…] […]-3′. The resulting products were cloned into the pBAD-TOPO TA expression vector (Invitrogen, Carlsbad, CA, USA) to yield the pBAD-fabI and pBAD-fabK recombinant plasmids, which placed the expression of the genes fabI and fabK, respectively, under the control of the arabinose promoter. Recombinant pBAD-fabI and pBAD-fabK were then introduced into the pump-negative (tolC) E. coli EW1b via electroporation to generate E. coli EW1b (pBAD-fabI) and E. coli EW1b (pBAD-fabK), respectively.

E. coli EW1b = assay: Overexpression assay, MIC for pump-negative (tolC) E. coli EW1b; format: cell-based; details: Escherichia coli
Protocol: as §1, §2

E. coli EW1b(pBAD) = assay: Overexpression assay, MIC for vector-containing E. coli EW1b (pBAD); format: cell-based; details: Escherichia coli
Protocol: as §1, §2

S. aureus RN4220 [1] = assay: Inhibition of macromolecular biosynthesis (radiolabeled precursor incorporation) in S. aureus; format: cell-based, Staphylococcus aureus; details: drugs at 2 times the MIC
Protocol: (§3) To monitor the effects of compound 1 on lipid, DNA, RNA, protein, and cell wall biosynthesis, its effects on the incorporation of [1-^14C] acetate (50 mCi/mmol), [2-^14C] thymidine (59.8 mCi/mmol), [U-^14C] uridine (539 mCi/mmol), L-[U-^14C] leucine (306 mCi/mmol) or L-[U-^14C] isoleucine (329 mCi/mmol), and N-acetyl-D-[1-^14C] glucosamine (58.1 mCi/mmol) into S. aureus and S. pneumoniae were measured as described previously. S. aureus was exponentially grown to an A650 of 0.2 in Mueller–Hinton broth. S. pneumoniae was grown in tryptic soy broth supplemented with 5% sheep blood. […] An equal volume of DMSO solvent was added to the untreated control. After incubation with the radiolabeled precursors at 37°C for 1 h, followed by centrifugation, the cell pellets were washed twice with PBS buffer. After acetate incorporation, the total cellular lipids were extracted with chloroform-methanol-water. The incorporated radioactivity in the chloroform phase was measured by scintillation counting. For the other precursors, incorporation was terminated by adding 10% (w/v) TCA and cooling on ice for 20 min. The precipitated material was collected on Whatman GF/C glass microfiber filters, washed with TCA and ethanol, dried, and counted using a scintillation counter. The total counts incorporated at 1 h of incubation without inhibitors ranged from >7,000 for [U-^14C] uridine to <13,000 for [1-^14C] acetate. […] In all experiments, known antibacterial agents were included as positive controls.

E. coli EW1b(pBAD-fabI) = assay: Overexpression assay, MIC for fabI-overexpressing E. coli EW1b (pBAD-fabI); format: cell-based; details: for MIC for fabI-overexpressing E. coli relative to wild-type and vector-containing E. coli: E. coli EW1b (pBAD-fabI) vs E. coli EW1b and E. coli EW1b (pBAD), in the presence of arabinose; for MIC: Escherichia coli
Protocol: as §1, §2

S. aureus RN4220 [2] = format: cell-based, Staphylococcus aureus; details: exposure 4× MIC
Protocol: (§4) The frequency of spontaneous resistance was determined for S. aureus RN4220, S. aureus KCTC 1916, and E. coli KCTC 1942. […] The organisms were grown to log-phase by dilution of an overnight culture in fresh media and re-incubation at 35°C until the cultures reached a cell density of approximately 10^9 CFU/mL. […] Inocula were determined by applying 100 μl of 10-fold dilutions on solid media without drug. Colony-forming units were counted after 48 h incubation at 35°C. The ratio of the number of colonies on drug-containing plates to that on control plates was calculated as the in vitro frequency of isolation of CFU.

S. aureus KCTC 1916 [3] = format: cell-based, Staphylococcus aureus; details: exposure 4× MIC
Protocol: as §4

S. aureus KCTC 1916 [4] = assay: MIC, S. aureus KCTC 1916; format: cell-based; details: Staphylococcus aureus, KCTC1916
Protocol: as §1

E. coli KCTC 1924 = format: cell-based; details: exposure 4× MIC
Protocol: as §4

S. aureus FabI = biological target: T1, S. aureus FabI (Staphylococcus aureus, UniProt Q6GI75); assay: Fluorescence quenching assay (direct binding); details: increasing amounts of compound; FabI fluorescence at 307 nm
T1 construct: made in house
T1 sequence (Q6GI75 1-256): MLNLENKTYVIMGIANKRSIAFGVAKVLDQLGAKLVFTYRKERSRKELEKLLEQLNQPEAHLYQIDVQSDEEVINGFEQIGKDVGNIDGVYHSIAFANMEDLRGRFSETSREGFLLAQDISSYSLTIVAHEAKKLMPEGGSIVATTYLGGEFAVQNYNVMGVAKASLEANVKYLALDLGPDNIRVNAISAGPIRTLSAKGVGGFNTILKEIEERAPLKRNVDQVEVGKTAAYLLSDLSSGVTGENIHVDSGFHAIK
Protocol: Fluorescence spectra were measured using a SHIMADZU fluorescence spectrophotometer (model RF-5310PC). […] Protein quenching was monitored at 25°C by using 5-nm excitation and 5-nm emission wavelength. The excitation wavelength was 280 nm, and the emission spectra were measured between 290 and 430 nm.

S. pneumoniae KCTC 3932 = assay: Inhibition of macromolecular biosynthesis (radiolabeled precursor incorporation) in S. pneumoniae; format: cell-based, Streptococcus pneumoniae; details: drugs at 2 times the MIC
Protocol: as §3

[5] = MIC against other gram-positive bacteria; format: cell-based; details: Staphylococcus aureus
Protocol: as §1

[6] = read-out: MIC E. coli EW1b(pBAD-fabK) (+) Ara
[7] = read-out: MIC E. coli EW1b(pBAD-fabK) (−) Ara
[8] = read-out: MIC E. coli EW1b (+) Ara
[9] = read-out: MIC E. coli EW1b (−) Ara
[10] = read-out: MIC E. coli EW1b(pBAD) (+) Ara
[11] = read-out: MIC E. coli EW1b(pBAD) (−) Ara
[12] = read-out: MIC E. coli EW1b(pBAD-fabI) (+) Ara
[13] = read-out: MIC E. coli EW1b(pBAD-fabI) (−) Ara

SMILES: C=CC(C)(C)C12C=C(O)C(=O)N3/C(=C/c4cnc[nH]4)C(=O)NC31N(OC)c1ccccc12 (stereo not shown) [Compound 1, meleagrin]
- MIC (E. coli EW1b(pBAD-fabK); [6]): 32 mg/L (≈ 73.8 µM)
- MIC (E. coli EW1b(pBAD-fabK); [7]): 32 mg/L (≈ 73.8 µM)
- MIC (E. coli EW1b; [8]): 32 mg/L (≈ 73.8 µM)
- MIC (E. coli EW1b; [9]): 32 mg/L (≈ 73.8 µM)
- MIC (E. coli EW1b(pBAD); [10]): 32 mg/L (≈ 73.8 µM)
- MIC (E. coli EW1b(pBAD); [11]): 32 mg/L (≈ 73.8 µM)
- Inhibition of precursor incorporation, L-[U-14C] Isoleucine (S. aureus RN4220 [1]): 6%
- Inhibition of precursor incorporation, N-Acetyl-D-[1-14C] Glucosamine (S. aureus RN4220 [1]): 25%
- Inhibition of precursor incorporation, [1-14C] Acetate (S. aureus RN4220 [1]): 62%
- Inhibition of precursor incorporation, [2-14C] Thymidine (S. aureus RN4220 [1]): 13%
- Inhibition of precursor incorporation, [U-14C] Uridine (S. aureus RN4220 [1]): 17%
- MIC for fabI-overexpressing E. coli relative to wild-type and vector-containing E. coli (E. coli EW1b(pBAD-fabI)): 4 fold
- MIC (E. coli EW1b(pBAD-fabI); [12]): 128 mg/L (≈ 295 µM)
- MIC (E. coli EW1b(pBAD-fabI); [13]): 32 mg/L (≈ 73.8 µM)
- Frequency of resistance (S. aureus RN4220 [2]): <1.62×10^−10
- Frequency of resistance (S. aureus KCTC 1916 [3]): <1.03×10^−10
- MIC (S. aureus KCTC 1916 [4]): 32 mg/L (≈ 73.8 µM)
- Frequency of resistance (E. coli KCTC 1924): <6.7×10^−9
- Fluorescence quenching of S. aureus FabI (S. aureus FabI): same pattern as compound 5
- Inhibition of precursor incorporation, L-[U-14C] Isoleucine (S. pneumoniae KCTC 3932): 9%
- Inhibition of precursor incorporation, N-Acetyl-D-[1-14C] Glucosamine (S. pneumoniae KCTC 3932): 3%
- Inhibition of precursor incorporation, [1-14C] Acetate (S. pneumoniae KCTC 3932): 65%
- Inhibition of precursor incorporation, [2-14C] Thymidine (S. pneumoniae KCTC 3932): 15%
- Inhibition of precursor incorporation, [U-14C] Uridine (S. pneumoniae KCTC 3932): 2%

SMILES: C=CC(C)(C)C12C=C(OC)C(=O)N3/C(=C/c4cnc[nH]4)C(=O)N(C)C31N(OC)c1ccccc12 (stereo not shown) [Compound 5, O,N^14-dimethylmeleagrin]
- MIC (E. coli EW1b(pBAD-fabK); [6]): 16 mg/L (≈ 34.7 µM)
- MIC (E. coli EW1b(pBAD-fabK); [7]): 16 mg/L (≈ 34.7 µM)
- MIC (E. coli EW1b; [8]): 16 mg/L (≈ 34.7 µM)
- MIC (E. coli EW1b; [9]): 16 mg/L (≈ 34.7 µM)
- MIC (E. coli EW1b(pBAD); [10]): 16 mg/L (≈ 34.7 µM)
- MIC (E. coli EW1b(pBAD); [11]): 16 mg/L (≈ 34.7 µM)
- MIC for fabI-overexpressing E. coli relative to wild-type and vector-containing E. coli (E. coli EW1b(pBAD-fabI)): 4 fold
- MIC (E. coli EW1b(pBAD-fabI); [12]): 64 mg/L (≈ 139 µM)
- MIC (E. coli EW1b(pBAD-fabI); [13]): 16 mg/L (≈ 34.7 µM)
- Frequency of resistance (S. aureus RN4220 [2]): <1.62×10^−10
- Frequency of resistance (S. aureus KCTC 1916 [3]): <1.03×10^−10
- MIC (S. aureus KCTC 1916 [4]; S. aureus KCTC 1916, read-out: MIC): 16 mg/L (≈ 34.7 µM)
- Frequency of resistance (E. coli KCTC 1924): <6.7×10^−9
- Fluorescence quenching of S. aureus FabI (S. aureus FabI): fluorescence intensity decreased gradually
- MIC ([5]; other gram-positive bacteria incl. MRSA and QRSA strains, read-out: MIC): 8 to 16 mg/L (≈ 17.3 to 34.7 µM)

SMILES: Oc1cc(Cl)ccc1Oc1ccc(Cl)cc1Cl [Triclosan, reference compound]
- MIC (E. coli EW1b(pBAD-fabK); [6]): > 0.08 mg/L
- MIC (E. coli EW1b(pBAD-fabK); [7]): 0.002 mg/L (≈ 0.00691 µM)
- MIC (E. coli EW1b; [8]): 0.002 mg/L (≈ 0.00691 µM)
- MIC (E. coli EW1b; [9]): 0.002 mg/L (≈ 0.00691 µM)
- MIC (E. coli EW1b(pBAD); [10]): 0.002 mg/L (≈ 0.00691 µM)
- MIC (E. coli EW1b(pBAD); [11]): 0.002 mg/L (≈ 0.00691 µM)
- Inhibition of precursor incorporation, [1-14C] Acetate (S. aureus RN4220 [1]): 87%
- MIC (E. coli EW1b(pBAD-fabI); [12]): > 0.08 mg/L
- MIC (E. coli EW1b(pBAD-fabI); [13]): 0.002 mg/L (≈ 0.00691 µM)
- MIC (S. aureus KCTC 1916 [4]): 0.01 mg/L (≈ 0.0345 µM)
- Fluorescence quenching of S. aureus FabI (S. aureus FabI): resulted in fluorescence quenching

SMILES: C=CC(C)(C)C12C=C(O)C(=O)N3/C(=C/c4cnc[nH]4)C(=O)NC31Nc1c(Br)cccc12 (stereo not shown) [Compound 7]
- Fluorescence quenching of S. aureus FabI (S. aureus FabI): did not exhibit such an effect

SMILES: C=CC(C)(C)C12C=C(OC)C(=O)N3/C(=C/c4cnc[nH]4)C(=O)N(C)C31Nc1ccccc12 (stereo not shown) [Compound 6, O,N^14-dimethylglandicolin]
- MIC [5]: 8 to 16 mg/L (≈ 18.5 to 37.1 µM)
